# Laboratory results reported in article PMC5721475, “Characterization of sulfhydryl oxidase from Aspergillus tubingensis” (BMC Biochemistry, 2017).
# Target: T1, AtSOX (secreted sulfhydryl oxidase from Aspergillus tubingensis) (Aspergillus tubingensis, UniProt Z9JMF6K8Z8)
# T1 construct: native secreted enzyme purified from culture medium; signal peptide removed; predicted N-terminus SSIPQ
# T1 sequence (Z9JMF6K8Z8 20-393): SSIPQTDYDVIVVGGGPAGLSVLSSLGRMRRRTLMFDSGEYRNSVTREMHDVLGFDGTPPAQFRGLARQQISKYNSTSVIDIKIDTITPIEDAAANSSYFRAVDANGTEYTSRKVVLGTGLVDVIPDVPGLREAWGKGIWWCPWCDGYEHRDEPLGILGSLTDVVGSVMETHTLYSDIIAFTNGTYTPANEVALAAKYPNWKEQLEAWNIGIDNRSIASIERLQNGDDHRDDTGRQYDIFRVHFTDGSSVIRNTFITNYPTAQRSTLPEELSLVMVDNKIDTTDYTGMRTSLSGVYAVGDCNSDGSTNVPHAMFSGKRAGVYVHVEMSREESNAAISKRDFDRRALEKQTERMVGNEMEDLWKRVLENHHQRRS
# Experiment: UV-vis and fluorescence spectra; release of flavin by thermal denaturation
# Assay type: binding
# Details: non-covalently bound, copurified; 20 mM Tris-HCl pH 7.5, 20 °C
compound,measurement,value
"Cc1cc2nc3c(=O)[nH]c(=O)nc-3n(C[C@H](O)[C@H](O)[C@H](O)COP(=O)(O)OP(=O)(O)OC[C@H]3O[C@@H](n4cnc5c(N)ncnc54)[C@H](O)[C@@H]3O)c2cc1C [FAD, flavin adenine dinucleotide]",UV-vis and fluorescence spectra; release of flavin by thermal denaturation,The enzyme had a non-covalently bound FAD as a cofactor
